In ChEMBL document CHEMBL2086273, “Significant activity of ecdysteroids on the resistance to doxorubicin in mammalian cancer cells expressing the human ABCB1 transporter” (J Med Chem, 2012):

Assays:
Assay type in all cases: cell-based
[1] = target: T1, ATP-dependent translocase ABCB1 (Homo sapiens, UniProt P08183); assay: Inhibition of human ABCB1 pump expressed in mouse L5178 cells assessed as fluorescence activity ratio at 20 uM for 10 mins by flow cytometry relative to control; details: l5178, 10 min
[2] = target: T1, ATP-dependent translocase ABCB1; assay: Inhibition of human ABCB1 expressed in mouse L5178 cells assessed as 95% inhibition of cell proliferation at compound-doxorubicin ratio of 40.8:1 after 48 hrs by MTT assay; details: l5178, 48 h
[3] = target: T1, ATP-dependent translocase ABCB1; assay: Inhibition of human ABCB1 expressed in mouse L5178 cells assessed as 75% inhibition of cell proliferation at compound-doxorubicin ratio of 40.8:1 after 48 hrs by MTT assay; details: l5178, 48 h
[4] = target: T1, ATP-dependent translocase ABCB1; assay: Inhibition of human ABCB1 expressed in mouse L5178 cells assessed as 50% inhibition of cell proliferation at compound-doxorubicin ratio of 40.8:1 after 48 hrs by MTT assay; details: l5178, 48 h
[5] = target: T1, ATP-dependent translocase ABCB1; assay: Inhibition of human ABCB1 expressed in mouse L5178 cells assessed as 50% inhibition of cell proliferation at compound-doxorubicin ratio of 20.4:1 after 48 hrs by MTT assay; details: l5178, 48 h
[6] = target: T1, ATP-dependent translocase ABCB1; assay: Inhibition of human ABCB1 expressed in mouse L5178 cells assessed as 75% inhibition of cell proliferation at compound-doxorubicin ratio of 20.4:1 after 48 hrs by MTT assay; details: l5178, 48 h
[7] = target: T1, ATP-dependent translocase ABCB1; assay: Inhibition of human ABCB1 expressed in mouse L5178 cells assessed as 95% inhibition of cell proliferation at compound-doxorubicin ratio of 20.4:1 after 48 hrs by MTT assay; details: l5178, 48 h

T1 sequence (P08183 whole entry): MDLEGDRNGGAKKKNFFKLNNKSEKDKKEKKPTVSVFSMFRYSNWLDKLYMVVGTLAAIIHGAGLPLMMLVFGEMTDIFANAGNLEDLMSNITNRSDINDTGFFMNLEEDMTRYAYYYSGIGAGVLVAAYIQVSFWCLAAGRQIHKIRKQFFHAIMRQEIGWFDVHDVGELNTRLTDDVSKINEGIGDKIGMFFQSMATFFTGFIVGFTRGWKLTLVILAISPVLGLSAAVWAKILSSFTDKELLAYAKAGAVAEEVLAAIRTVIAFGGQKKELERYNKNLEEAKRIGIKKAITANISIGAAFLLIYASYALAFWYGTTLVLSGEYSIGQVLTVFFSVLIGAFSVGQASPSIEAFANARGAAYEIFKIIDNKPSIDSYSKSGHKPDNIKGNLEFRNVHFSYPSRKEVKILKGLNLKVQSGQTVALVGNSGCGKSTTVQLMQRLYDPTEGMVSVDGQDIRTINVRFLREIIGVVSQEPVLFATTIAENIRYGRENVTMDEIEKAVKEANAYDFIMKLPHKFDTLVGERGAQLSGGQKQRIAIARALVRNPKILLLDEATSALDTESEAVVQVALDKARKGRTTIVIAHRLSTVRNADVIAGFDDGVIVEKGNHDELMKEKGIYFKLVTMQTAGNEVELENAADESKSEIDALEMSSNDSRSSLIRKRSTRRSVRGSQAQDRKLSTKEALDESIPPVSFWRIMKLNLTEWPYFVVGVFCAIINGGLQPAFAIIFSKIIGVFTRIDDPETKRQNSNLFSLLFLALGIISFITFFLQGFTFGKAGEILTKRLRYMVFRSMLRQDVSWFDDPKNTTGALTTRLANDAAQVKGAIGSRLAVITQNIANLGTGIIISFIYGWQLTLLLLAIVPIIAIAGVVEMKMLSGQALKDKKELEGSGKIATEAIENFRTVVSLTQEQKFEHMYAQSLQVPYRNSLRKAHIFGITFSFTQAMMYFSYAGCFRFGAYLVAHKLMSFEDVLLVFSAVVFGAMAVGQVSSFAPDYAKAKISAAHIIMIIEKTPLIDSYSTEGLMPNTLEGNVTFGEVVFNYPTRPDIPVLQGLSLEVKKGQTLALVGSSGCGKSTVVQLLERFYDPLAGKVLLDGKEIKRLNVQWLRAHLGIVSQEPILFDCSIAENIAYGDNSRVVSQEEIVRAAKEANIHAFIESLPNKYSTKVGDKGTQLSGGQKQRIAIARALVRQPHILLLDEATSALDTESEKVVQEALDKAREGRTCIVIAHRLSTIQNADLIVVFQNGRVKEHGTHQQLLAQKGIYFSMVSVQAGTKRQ

Compound | Ratio [1] | fractional inhibitory concentration index (FICI) [2] | fractional inhibitory concentration index (FICI) [3] | fractional inhibitory concentration index (FICI) [4] | fractional inhibitory concentration index (FICI) [5] | fractional inhibitory concentration index (FICI) [6] | fractional inhibitory concentration index (FICI) [7]
CC(O)(CO)CC[C@H]1OC(C)(C)O[C@]1(C)[C@H]1CC[C@@]2(O)C3=CC(=O)[C@]4(O)C[C@@H](O)[C@@H](O)C[C@]4(C)[C@H]3CC[C@]12C (some centres undefined) | 13.32 | 0.062 | 0.16 | 0.42 |  |  | 
CC(=O)O[C@H]1C[C@]2(C)[C@H]3CC[C@]4(C)[C@@H]([C@@](C)(O)[C@@H](CCC(C)(C)O)OC(C)=O)CC[C@@]4(O)C3=CC(=O)[C@]2(O)C[C@H]1OC(C)=O | 47.95 | 0.26 | 0.3 | 0.35 |  |  | 
CC[C@H](C[C@@H](O)[C@](C)(O)[C@H]1CC[C@@]2(O)C3=CC(=O)[C@@H]4C[C@@H](O)[C@@H](O)C[C@]4(C)[C@H]3CC[C@]12C)C(C)(C)O [MAKISTERONE C] | 0.66 | 0.2 | 0.42 | 0.98 |  |  | 
CC(C)(O)CC[C@@H](OC(=O)c1ccccc1)[C@](C)(O)[C@H]1CC[C@@]2(O)C3=CC(=O)[C@@H]4C[C@@H](O)[C@@H](O)C[C@]4(C)[C@H]3CC[C@]12C | 2.18 | 0.32 | 0.43 | 0.58 |  |  | 
CC(C)(O)CC[C@@H](O)[C@](C)(O)[C@H]1CC[C@@]2(O)C3=CC(=O)[C@@H]4C[C@@H](O)CC[C@]4(C)[C@H]3CC[C@]12C | 0.55 | 2.26 | 1.48 | 1.05 |  |  | 
CC(C)CC[C@H]1OC(C)(C)O[C@]1(C)[C@H]1CC[C@@]2(O)C3=CC(=O)[C@@H]4C[C@H]5OC(C)(C)O[C@H]5C[C@]4(C)C3=CC[C@]12C | 41.15 |  |  |  | 0.19 | 0.14 | 0.1
C[C@@H]1C(=O)O[C@H](C)[C@H]1C[C@@H](O)[C@](C)(O)[C@H]1CC[C@@]2(O)C3=CC(=O)[C@@H]4C[C@@H](O)[C@@H](O)C[C@]4(C)[C@H]3CC[C@]12C [CYASTERONE] | 0.75 | 0.47 | 0.85 | 1.54 |  |  | 
CC(C)CC[C@@H](O)[C@](C)(O)[C@H]1CC[C@@]2(O)C3=CC(=O)[C@@H]4C[C@@H](O)[C@@H](O)C[C@]4(C)C3=CC[C@]12C [DACRYHAINANSTERONE] | 1.07 | 5.46 | 2.92 | 1.76 |  |  | 
CC(C)(O)CC[C@@H](O)[C@](C)(O)[C@H]1CC[C@@]2(O)C3=CC(=O)[C@]4(O)C[C@@H](O)[C@@H](O)C[C@]4(C)[C@H]3CC[C@]12C [POLYPODINE B] | 0.77 |  |  |  | 1.11 | 0.8 | 0.58
C[C@]12C[C@H](O)[C@H](O)C[C@H]1C(=O)C=C1[C@@H]2CC[C@]2(C)C(=O)CC[C@@]12O [RUBROSTERONE] | 0.89 | 0.41 | 0.65 | 1.12 |  |  | 
CC(C)(O)CC[C@H]1OC(C)(C)O[C@]1(C)[C@H]1CC[C@@]2(O)C3=CC(=O)[C@@H]4C[C@@H](O)[C@@H](O)C[C@]4(C)[C@H]3CC[C@]12C | 1.53 |  |  |  | 0.84 | 0.54 | 0.35
CC(C)[C@@H](O)C[C@@H](O)[C@](C)(O)[C@H]1CC[C@@]2(O)C3=CC(=O)[C@@H]4C[C@@H](O)[C@@H](O)C[C@]4(C)[C@H]3CC[C@]12C [PTEROSTERONE] | 0.56 | 0.54 | 0.84 | 1.32 |  |  | 
CC(=O)O[C@H]1C[C@]2(C)[C@H]3CC[C@]4(C)[C@@H]([C@@](C)(O)[C@@H](CCC(C)(C)O)OC(C)=O)CC[C@@]4(O)C3=CC(=O)[C@]2(O)C[C@H]1O | 0.84 | 0.6 | 0.86 | 1.22 |  |  | 
CC(C)CC[C@H]1OC(C)(C)O[C@]1(C)[C@H]1CC[C@@]2(O)C3=CC(=O)[C@@H]4C[C@H]5OC(C)(C)O[C@H]5C[C@]4(C)[C@H]3[C@H](O)C[C@]12C | 46.49 |  |  |  | 0.18 | 0.14 | 0.12

Second part, led by results:

Ratio [1] | Compound | fractional inhibitory concentration index (FICI) [2] | fractional inhibitory concentration index (FICI) [3] | fractional inhibitory concentration index (FICI) [4] | fractional inhibitory concentration index (FICI) [5] | fractional inhibitory concentration index (FICI) [6] | fractional inhibitory concentration index (FICI) [7]
1.14 | CC(C)(O)CC[C@H]1OC(C)(C)O[C@]1(C)[C@H]1CC[C@@]2(O)C3=CC(=O)[C@@H]4C[C@@H](O)[C@@H](O)[C@@H](O)[C@]4(C)[C@H]3CC[C@]12C | 0.23 | 0.51 | 1.16 |  |  | 
25.07 | CC(=O)O[C@H]1CC[C@@]2(C)[C@@H](C1)C(=O)C=C1[C@@H]2CC[C@]2(C)[C@@H]([C@H](C)[C@@H](CCC(C)(C)OC(C)=O)OC(C)=O)CC[C@@]12O |  |  |  | 0.41 | 0.23 | 0.14
1.25 | CC(=O)O[C@H]1C[C@@]2(C)[C@@H](C[C@H]1OC(C)=O)C(=O)C=C1[C@@H]2CC[C@]2(C)[C@@H]([C@@](C)(O)[C@@H](CCC(C)(C)O)OC(C)=O)CC[C@@]12O | 0.7 | 0.91 | 1.26 |  |  | 
0.88 | C=C(CCCC(C)(C)O)[C@H]1CC[C@@]2(O)C3=CC(=O)[C@@H]4C[C@@H](O)[C@@H](O)C[C@]4(C)[C@H]3CC[C@]12C | 0.53 | 0.71 | 1.05 |  |  | 
0.7 | C=C(C)C(C[C@@H](O)[C@](C)(O)[C@H]1CC[C@@]2(O)C3=CC(=O)[C@]4(O)C[C@@H](O)[C@@H](O)C[C@]4(C)[C@H]3CC[C@]12C)C(C)O (some centres undefined) [AJUGASTERONE B] | 0.3 | 0.59 | 1.21 |  |  | 
1.76 | CC(C)(O)CC[C@@H](O)[C@](C)(O)[C@H]1CC[C@@]2(O)C3=CC(=O)[C@@H]4C[C@@H](O)[C@@H](O)C[C@]4(C)[C@H]3CC[C@]12C [20-HYDROXYECDYSONE] |  |  |  | 2 | 2.02 | 2.04
1.43 | C=C(C)CC[C@@H](O)[C@](C)(O)[C@H]1CC[C@@]2(O)C3=CC(=O)[C@@H]4C[C@@H](O)[C@@H](O)C[C@]4(C)C3=CC[C@]12C | 0.43 | 0.85 | 1.75 |  |  | 
0.97 | CC(=O)O[C@H]1CC[C@@]2(C)[C@@H](C1)C(=O)C=C1[C@@H]2CC[C@]2(C)[C@@H]([C@H](C)[C@@H](CCC(C)(C)O)OC(C)=O)CC[C@@]12O |  |  |  | 1.5 | 0.86 | 0.5
0.63 | CCC1C[C@H]([C@](C)(O)[C@H]2CC[C@@]3(O)C4=CC(=O)[C@@H]5C[C@@H](O)[C@@H](O)C[C@]5(C)[C@H]4CC[C@]23C)OC(=O)C1C (some centres undefined) [CAPITASTERONE] | 0.49 | 0.74 | 1.35 |  |  | 
0.66 | CC(C)(O)CCC[C@](C)(O)[C@H]1CC[C@@]2(O)C3=CC(=O)[C@@H]4C[C@@H](O)[C@@H](O)[C@@H](O)[C@]4(C)[C@H]3CC[C@]12C | 0.6 | 0.9 | 1.37 |  |  | 
1.93 | CC(C)CC[C@H]1OC(C)(C)O[C@]1(C)[C@H]1CC[C@@]2(O)C3=CC(=O)[C@@H]4C[C@@H](O)[C@@H](O)C[C@]4(C)[C@H]3[C@H](O)C[C@]12C |  |  |  | 0.52 | 0.25 | 0.13
26.53 | CC[C@H](C[C@H]1OC(C)(C)O[C@]1(C)[C@H]1CC[C@@]2(O)C3=CC(=O)[C@@H]4C[C@H]5OC(C)(C)O[C@H]5C[C@]4(C)[C@H]3CC[C@]12C)C(C)(C)O |  |  |  | 0.19 | 0.11 | 0.068
